Experimental data from patent publication US20150105252A1, “SUBSTITUTED PYRAZOLES AS HERBICIDES” (E I DU PONT DE NEMOURS AND COMPANY, priority 2013, published 2015).

What was measured:
morningglory = assay: Test A postemergence; assay type: in vivo, Ipomoea spp.
In short: (§1)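 Ratings express plant response from 0 (no effect) to 100 (complete control), judged visually against untreated controls after approximately 10 days in the greenhouse. Preemergence applications were made as directed soil sprays onto seeded loam–sand mix, and postemergence applications onto 2–10 cm plants at one- to two-leaf stage.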

foxtail, giant [1] = assay: Test A preemergence; assay type: in vivo, Setaria faberii; conditions: preemergence; for Foxtail, Giant plant response rating (0 to 100 scale): 125 g ai/ha, visual injury approx. 10 days after treatment; for Foxtail, Giant plant response rating: 500 g ai/ha, visual injury after approx. 10 days, 0 to 100 scale (0 no effect, 100 complete control)
In short: as §1

barnyardgrass [2] = assay: Test A preemergence; assay type: in vivo, Echinochloa crus-galli; conditions: preemergence; for Barnyardgrass plant response rating (0 to 100 scale, 0 is no effect, 100 is complete control): 125 g ai/ha, visual injury approx. 10 days after treatment; for Barnyardgrass plant response rating: 500 g ai/ha, visual injury after approx. 10 days, 0 to 100 scale (0 no effect, 100 complete control)
In short: as §1

foxtail, giant [3] = assay: Test C preemergence; assay type: in vivo, Setaria faberii; conditions: preemergence; for Plant response rating, Foxtail, Giant: 125 g ai/ha, scale 0 to 100, 0 = no effect, 100 = complete control
In short: (§2)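 Seeds sown in loam–sand blend and treated preemergence with test chemicals in non-phytotoxic solvent with surfactant; postemergence plants in peat-based medium, treated at 2–18 cm (1- to 4-leaf stage). Greenhouse 13 to 15 days, then visual rating versus controls, 0 (no effect) to 100 (complete control).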

foxtail, giant [4] = assay: Test A postemergence; assay type: in vivo, Setaria faberii
In short: as §1

waterhemp = assay: Test C preemergence; assay type: in vivo, Amaranthus rudis; conditions: preemergence; for Plant response rating, Waterhemp: 125 g ai/ha, scale 0 to 100, 0 = no effect, 100 = complete control
In short: as §2

johnsongrass = assay: Test C preemergence; assay type: in vivo, Sorghum halepense; conditions: preemergence; for Plant response rating, Johnsongrass: 125 g ai/ha, scale 0 to 100, 0 = no effect, 100 = complete control
In short: as §2

barnyardgrass [5] = assay: Test C preemergence; assay type: in vivo, Echinochloa crus-galli; conditions: preemergence; for Plant response rating, Barnyardgrass: 125 g ai/ha, scale 0 to 100, 0 = no effect, 100 = complete control
In short: as §2

pigweed = assay: Test C preemergence; assay type: in vivo, Amaranthus retroflexus; conditions: preemergence; for Plant response rating, Pigweed: 125 g ai/ha, scale 0 to 100, 0 = no effect, 100 = complete control
In short: as §2

corn [6] = assay: Test C preemergence; assay type: in vivo, Zea mays; conditions: preemergence; for Plant response rating, Corn: 125 g ai/ha, scale 0 to 100, 0 = no effect, 100 = complete control
In short: as §2

corn [7] = assay: Test A preemergence; assay type: in vivo, Zea mays; conditions: preemergence; for Corn plant response rating (0 to 100 scale): 125 g ai/ha, visual injury approx. 10 days after treatment; for Corn plant response rating: 500 g ai/ha, visual injury after approx. 10 days, 0 to 100 scale (0 no effect, 100 complete control)
In short: as §1

soybean = assay: Test C preemergence; assay type: in vivo, Glycine max; conditions: preemergence; for Plant response rating, Soybean: 125 g ai/ha, scale 0 to 100, 0 = no effect, 100 = complete control
In short: as §2

wheat = assay: Test A postemergence; assay type: in vivo, Triticum aestivum
In short: as §1

crabgrass, large = assay: Test C preemergence; assay type: in vivo, Digitaria sanguinalis; conditions: preemergence; for Plant response rating, Crabgrass, Large: 125 g ai/ha, scale 0 to 100, 0 = no effect, 100 = complete control
In short: as §2

velvetleaf = assay: Test C preemergence; assay type: in vivo, Abutilon theophrasti; conditions: preemergence; for Plant response rating, Velvetleaf: 125 g ai/ha, scale 0 to 100, 0 = no effect, 100 = complete control
In short: as §2

[8] = Postemergence, 500 g ai/ha, 0 to 100 scale (0 no effect, 100 complete control)
[9] = postemergence, 125 g ai/ha, about 10 days, visual rating on 0 to 100 scale (0 no effect, 100 complete control)
[10] = 31 g ai/ha, visual rating, scale 0 to 100 (0 no effect, 100 complete control), 13 to 15 days
[11] = 62 g ai/ha, scale 0 to 100 (0 no effect, 100 complete control), 13 to 15 days
[12] = 250 g ai/ha, scale 0 to 100, 0 is no effect, 100 is complete control
[13] = Postemergence, 125 g ai/ha, 0 to 100 scale, 0 no effect, 100 complete control

`CCNC(=O)c1cc(CCCl)n(Cc2ccnc(C(F)(F)F)c2)n1` [Compound 179] was tested, and the “Morningglory plant response rating” value (morningglory; [8]) was 100, the “Morningglory plant response rating” value (morningglory; [9]) was 60 and the “Foxtail, Giant plant response rating (0 to 100 scale)” value (foxtail, giant [1]) was 100. For the same compound, the “Foxtail, Giant plant response rating” value (foxtail, giant [1]) was 100, the “Barnyardgrass plant response rating (0 to 100 scale, 0 is no effect, 100 is complete control)” value (barnyardgrass [2]) was 100 and the “Barnyardgrass plant response rating” value (barnyardgrass [2]) was 100. The “Foxtail, Giant plant response rating” value (foxtail, giant [3]; [10]) was 98, the “Foxtail, Giant plant response rating” value (foxtail, giant [3]; [11]) was 100 and the “Plant response rating, Foxtail, Giant” value (foxtail, giant [3]; 13 to 15 days) was 100. For the same compound, the “Foxtail, Giant plant response rating” value (foxtail, giant [3]; [12]) was 100, the “Foxtail, Giant plant response rating” value (foxtail, giant [4]; [8]) was 90 and the “Foxtail, Giant plant response rating” value (foxtail, giant [4]; [9]) was 90. For the same compound, the “Waterhemp plant response rating” value (waterhemp; [10]) was 100, the “Waterhemp plant response rating” value (waterhemp; [11]) was 100 and the “Plant response rating, Waterhemp” value (waterhemp; 13 to 15 days) was 100. For the same compound, the “Waterhemp plant response rating” value (waterhemp; [12]) was 100, the “Johnsongrass plant response rating” value (johnsongrass; [10]) was 10 and the “Johnsongrass plant response rating” value (johnsongrass; [11]) was 10. The “Plant response rating, Johnsongrass” value (johnsongrass; 13 to 15 days) was 75, the “Johnsongrass plant response rating” value (johnsongrass; [12]) was 98 and the “Barnyardgrass plant response rating” value (barnyardgrass [5]; [10]) was 60. For the same compound, the “Barnyardgrass plant response rating” value (barnyardgrass [5]; [11]) was 98, the “Plant response rating, Barnyardgrass” value (barnyardgrass [5]; 13 to 15 days) was 100 and the “Barnyardgrass plant response rating” value (barnyardgrass [5]; [12]) was 100. The “Pigweed plant response rating” value (pigweed; [10]) was 100, the “Pigweed plant response rating” value (pigweed; [11]) was 100 and the “Plant response rating, Pigweed” value (pigweed; 13 to 15 days) was 100. The “Pigweed plant response rating” value (pigweed; [12]) was 98, the “Corn plant response rating” value (corn [6]; [10]) was 5 and the “Corn plant response rating” value (corn [6]; [11]) was 10. For the same compound, the “Plant response rating, Corn” value (corn [6]; 13 to 15 days) was 30, the “Corn plant response rating” value (corn [6]; [12]) was 95 and the “Corn plant response rating (0 to 100 scale)” value (corn [7]) was 10. For the same compound, the “Corn plant response rating” value (corn [7]) was 50, the “Soybean plant response rating” value (soybean; [10]) was 35 and the “Soybean plant response rating” value (soybean; [11]) was 65. For the same compound, the “Plant response rating, Soybean” value (soybean; 13 to 15 days) was 85, the “Soybean plant response rating” value (soybean; [12]) was 98 and the “Wheat plant response rating” value (wheat; [8]) was 70. For the same compound, the “Wheat plant response rating” value (wheat; [9]) was 30, the “Crabgrass, Large plant response rating” value (crabgrass, large; [10]) was 100 and the “Crabgrass, Large plant response rating” value (crabgrass, large; [11]) was 100. For the same compound, the “Plant response rating, Crabgrass, Large” value (crabgrass, large; 13 to 15 days) was 100, the “Crabgrass, Large plant response rating” value (crabgrass, large; [12]) was 100 and the “Velvetleaf plant response rating” value (velvetleaf; [10]) was 35. The “Velvetleaf plant response rating” value (velvetleaf; [11]) was 80, the “Plant response rating, Velvetleaf” value (velvetleaf; 13 to 15 days) was 100 and the “Velvetleaf plant response rating” value (velvetleaf; [12]) was 100.

With `CCCc1cc(C(=O)NOCC)nn1Cc1ccnc(C(F)(F)F)c1` [Compound 185] the “Morningglory plant response rating” value (morningglory; [13]) was 20, the “Morningglory plant response rating” value (morningglory; [8]) was 90 and the “Foxtail, Giant plant response rating (0 to 100 scale)” value (foxtail, giant [1]) was 100. The “Foxtail, Giant plant response rating” value (foxtail, giant [1]) was 100, the “Barnyardgrass plant response rating (0 to 100 scale, 0 is no effect, 100 is complete control)” value (barnyardgrass [2]) was 80 and the “Barnyardgrass plant response rating” value (barnyardgrass [2]) was 100. For the same compound, the “Foxtail, Giant plant response rating” value (foxtail, giant [3]; [10]) was 60, the “Foxtail, Giant plant response rating” value (foxtail, giant [3]; [11]) was 90 and the “Plant response rating, Foxtail, Giant” value (foxtail, giant [3]; 13 to 15 days) was 98. The “Foxtail, Giant plant response rating” value (foxtail, giant [3]; [12]) was 100, the “Foxtail, Giant plant response rating” value (foxtail, giant [4]; [8]) was 90 and the “Foxtail, Giant plant response rating” value (foxtail, giant [4]; [9]) was 80. For the same compound, the “Waterhemp plant response rating” value (waterhemp; [10]) was 100, the “Waterhemp plant response rating” value (waterhemp; [11]) was 100 and the “Plant response rating, Waterhemp” value (waterhemp; 13 to 15 days) was 100. The “Waterhemp plant response rating” value (waterhemp; [12]) was 100, the “Johnsongrass plant response rating” value (johnsongrass; [10]) was 5 and the “Johnsongrass plant response rating” value (johnsongrass; [11]) was 10. The “Plant response rating, Johnsongrass” value (johnsongrass; 13 to 15 days) was 20, the “Johnsongrass plant response rating” value (johnsongrass; [12]) was 60 and the “Barnyardgrass plant response rating” value (barnyardgrass [5]; [10]) was 55. The “Barnyardgrass plant response rating” value (barnyardgrass [5]; [11]) was 75, the “Plant response rating, Barnyardgrass” value (barnyardgrass [5]; 13 to 15 days) was 98 and the “Barnyardgrass plant response rating” value (barnyardgrass [5]; [12]) was 100. For the same compound, the “Pigweed plant response rating” value (pigweed; [10]) was 100, the “Pigweed plant response rating” value (pigweed; [11]) was 100 and the “Plant response rating, Pigweed” value (pigweed; 13 to 15 days) was 100. For the same compound, the “Pigweed plant response rating” value (pigweed; [12]) was 100, the “Corn plant response rating” value (corn [6]; [10]) was 5 and the “Corn plant response rating” value (corn [6]; [11]) was 25. The “Plant response rating, Corn” value (corn [6]; 13 to 15 days) was 45, the “Corn plant response rating” value (corn [6]; [12]) was 75 and the “Corn plant response rating (0 to 100 scale)” value (corn [7]) was 10. For the same compound, the “Corn plant response rating” value (corn [7]) was 30, the “Soybean plant response rating” value (soybean; [10]) was 5 and the “Soybean plant response rating” value (soybean; [11]) was 5. For the same compound, the “Plant response rating, Soybean” value (soybean; 13 to 15 days) was 25, the “Soybean plant response rating” value (soybean; [12]) was 65 and the “Wheat plant response rating” value (wheat; [13]) was 0. The “Wheat plant response rating” value (wheat; [8]) was 80, the “Crabgrass, Large plant response rating” value (crabgrass, large; [10]) was 80 and the “Crabgrass, Large plant response rating” value (crabgrass, large; [11]) was 100. For the same compound, the “Plant response rating, Crabgrass, Large” value (crabgrass, large; 13 to 15 days) was 100, the “Crabgrass, Large plant response rating” value (crabgrass, large; [12]) was 100 and the “Velvetleaf plant response rating” value (velvetleaf; [10]) was 20. The “Velvetleaf plant response rating” value (velvetleaf; [11]) was 65, the “Plant response rating, Velvetleaf” value (velvetleaf; 13 to 15 days) was 100 and the “Velvetleaf plant response rating” value (velvetleaf; [12]) was 98.
